Experimental findings from publication PMC10765126, “High-throughput computational screening and in vitro evaluation identifies 5-(4-oxo-4H-3,1-benzoxazin-2-yl)-2-[3-(4-oxo-4H-3,1-benzoxazin-2-yl) phenyl]-1H-isoindole-1,3(2H)-dione (C3), as a novel EGFR—HER2 dual inhibitor in gastric tumors” (Oncology Research, 2023) are described below.

One test has as its target EGFR (Homo sapiens, UniProt P00533, L858R/T790M). The test can be described thus: luminescence kinase assay (Kinase-Glo Max, BPS Bioscience EGFR (T790M/L858R) kit, […] ATP). It is filed as biochemical. On the technique in general: In Kinase-Glo more light means more ATP remaining.
In another test the target is T1, HER2 (Homo sapiens, UniProt P04626).
T1 construct: gene ERBB2
T1 sequence (P04626 23-1255): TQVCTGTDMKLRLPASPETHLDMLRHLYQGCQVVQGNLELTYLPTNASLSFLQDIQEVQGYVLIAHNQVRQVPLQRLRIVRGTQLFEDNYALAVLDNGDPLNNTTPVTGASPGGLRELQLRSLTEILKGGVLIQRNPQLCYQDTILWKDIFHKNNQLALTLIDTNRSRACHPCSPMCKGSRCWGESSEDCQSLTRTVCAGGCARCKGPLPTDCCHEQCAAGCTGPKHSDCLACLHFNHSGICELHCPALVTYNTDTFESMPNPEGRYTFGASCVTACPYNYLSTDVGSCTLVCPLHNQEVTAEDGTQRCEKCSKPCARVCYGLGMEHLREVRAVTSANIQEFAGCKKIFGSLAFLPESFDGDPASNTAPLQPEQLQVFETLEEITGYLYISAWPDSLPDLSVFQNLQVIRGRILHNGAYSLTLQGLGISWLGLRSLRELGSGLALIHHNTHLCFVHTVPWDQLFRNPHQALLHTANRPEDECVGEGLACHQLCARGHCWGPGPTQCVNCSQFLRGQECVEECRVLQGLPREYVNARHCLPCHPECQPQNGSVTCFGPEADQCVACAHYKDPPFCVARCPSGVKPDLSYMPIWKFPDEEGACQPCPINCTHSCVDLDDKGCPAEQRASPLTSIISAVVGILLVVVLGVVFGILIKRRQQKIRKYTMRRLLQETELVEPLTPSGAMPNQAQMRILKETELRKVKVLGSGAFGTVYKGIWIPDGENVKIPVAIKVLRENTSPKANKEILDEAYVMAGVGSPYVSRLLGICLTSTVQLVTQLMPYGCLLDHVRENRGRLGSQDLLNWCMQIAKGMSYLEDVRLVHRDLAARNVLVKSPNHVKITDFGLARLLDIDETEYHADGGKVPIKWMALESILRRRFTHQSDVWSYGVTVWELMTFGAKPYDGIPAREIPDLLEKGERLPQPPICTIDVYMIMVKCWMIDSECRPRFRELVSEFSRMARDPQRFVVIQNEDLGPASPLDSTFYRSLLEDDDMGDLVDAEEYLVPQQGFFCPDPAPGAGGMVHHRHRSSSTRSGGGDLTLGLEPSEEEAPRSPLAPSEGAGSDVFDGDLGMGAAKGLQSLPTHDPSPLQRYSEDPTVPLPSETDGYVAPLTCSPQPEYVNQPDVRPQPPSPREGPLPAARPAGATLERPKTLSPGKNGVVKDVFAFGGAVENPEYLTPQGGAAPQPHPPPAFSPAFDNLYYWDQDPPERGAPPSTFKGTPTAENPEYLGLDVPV
The test can be described thus: luminescence kinase assay (Kinase-Glo Max, BPS Bioscience HER2 kit, […] ATP). The class given is biochemical.

EGFR, sequence (P00533 696-1210 T790M/L858R limits assumed): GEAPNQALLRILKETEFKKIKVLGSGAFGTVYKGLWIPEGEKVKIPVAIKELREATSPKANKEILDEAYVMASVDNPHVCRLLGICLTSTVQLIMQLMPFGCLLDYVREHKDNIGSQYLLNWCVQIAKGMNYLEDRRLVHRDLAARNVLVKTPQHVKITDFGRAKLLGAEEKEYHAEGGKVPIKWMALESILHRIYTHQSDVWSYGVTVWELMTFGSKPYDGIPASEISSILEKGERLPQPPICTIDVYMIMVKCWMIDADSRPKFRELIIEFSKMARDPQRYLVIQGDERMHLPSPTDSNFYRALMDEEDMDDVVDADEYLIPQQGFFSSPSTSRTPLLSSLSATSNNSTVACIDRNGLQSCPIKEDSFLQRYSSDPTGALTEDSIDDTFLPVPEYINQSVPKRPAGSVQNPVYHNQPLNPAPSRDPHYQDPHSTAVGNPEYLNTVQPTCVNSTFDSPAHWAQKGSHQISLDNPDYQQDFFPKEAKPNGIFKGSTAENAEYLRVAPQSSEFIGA

With `O=C1c2ccc(-c3nc4ccccc4c(=O)o3)cc2C(=O)N1c1cccc(-c2nc3ccccc3c(=O)o2)c1` [C3, 5-(4-oxo-4H-3,1-benzoxazin-2-yl)-2-[3-(4-oxo-4H-3,1-benzoxazin-2-yl)phenyl]-1H-isoindole-1,3(2H)-dione], the concentration for half-maximal inhibition (IC50) on EGFR was 37.2 nM; on HER2 it was 45.8 nM.

As a reminder, the IC50 is the concentration that gives 50% inhibition.
